# Experimental data from PubChem BioAssay AID330 (DTP/NCI, 2004).
# Several values for one entry are separate records, joined by “and”; a condition that tells them apart may be missing. Identical values can stand only once. Inconclusive results and toxic doses are left out.
# Tested on: P388 leukemia ip, CD2F1 mice, survival T/C
# Assay: NCI In Vivo Anticancer Drug Screen. Data for tumor model P388 Leukemia (intraperitoneal) in CD2F1 (CDF1) mice
# Conditions: endpoint: median survival time, higher = longer survival
# How it was run: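 Mice carrying the transplanted tumor received test compound or vehicle. Survival was recorded in each group, and the value is the treated-group measurement divided by that of the vehicle-treated control group.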
# [1] = dose: 50.0 mg/kg/injection, schedule: Q01DX009 (ip), vehicle: Klucel (hydroxypropylcellulose) (HPC)
# [2] = dose: 100.0 mg/kg/injection, schedule: Q01DX009 (ip), vehicle: Klucel (hydroxypropylcellulose) (HPC)
# [3] = dose: 200.0 mg/kg/injection, schedule: Q01DX009 (ip), vehicle: Klucel (hydroxypropylcellulose) (HPC)
# [4] = dose: 25.0 mg/kg/injection, schedule: Q01DX009 (ip), vehicle: Klucel (hydroxypropylcellulose) (HPC)
# [5] = dose: 15.0 mg/kg/injection, schedule: Q01DX005 (ip), vehicle: Klucel (hydroxypropylcellulose) (HPC)
# [6] = dose: 30.0 mg/kg/injection, schedule: Q01DX005 (ip), vehicle: Klucel (hydroxypropylcellulose) (HPC)
# [7] = dose: 50.0 mg/kg/injection, schedule: Q01DX009 (ip), vehicle: saline
# [8] = dose: 100.0 mg/kg/injection, schedule: Q01DX009 (ip), vehicle: saline
# [9] = dose: 200.0 mg/kg/injection, schedule: Q01DX009 (ip), vehicle: saline
# [10] = dose: 60.0 mg/kg/injection, schedule: Q01DX005 (ip), vehicle: saline with Tween-80
# [11] = dose: 240.0 mg/kg/injection, schedule: Q01DX005 (ip), vehicle: saline with Tween-80
# [12] = dose: 50.0 mg/kg/injection, schedule: Q01DX009 (ip), vehicle: saline with Tween-80
# [13] = dose: 100.0 mg/kg/injection, schedule: Q01DX009 (ip), vehicle: saline with Tween-80
# [14] = dose: 100.0 mg/kg/injection, schedule: Q01DX001 (ip), vehicle: saline with Tween-80
# [15] = dose: 200.0 mg/kg/injection, schedule: Q01DX001 (ip), vehicle: saline with Tween-80
# [16] = dose: 400.0 mg/kg/injection, schedule: Q01DX001 (ip), vehicle: saline with Tween-80
# [17] = dose: 60.0 mg/kg/injection, schedule: Q01DX005 (ip), vehicle: Klucel (hydroxypropylcellulose) (HPC)
# [18] = dose: 120.0 mg/kg/injection, schedule: Q01DX005 (ip), vehicle: Klucel (hydroxypropylcellulose) (HPC)
# [19] = dose: 100.0 mg/kg/injection, schedule: Q04DX002 (ip), vehicle: saline with Tween-80
# [20] = dose: 200.0 mg/kg/injection, schedule: Q04DX002 (ip), vehicle: saline with Tween-80
structure (smiles),measurement,setting,value
COc1ccc(CSC(=S)Nc2ccc(F)cc2F)cc1,T/C,[1],99 % of control
same,T/C,"dose: 50.0 mg/kg/injection, schedule: Q01DX009 (ip), vehicle: suspension in saline",106 % of control
same,T/C,[2],107 % of control
same,T/C,"dose: 100.0 mg/kg/injection, schedule: Q01DX009 (ip), vehicle: suspension in saline",100 % of control
same,T/C,[3],112 % of control
same,T/C,"dose: 200.0 mg/kg/injection, schedule: Q01DX009 (ip), vehicle: suspension in saline",98 % of control
CSc1cc(C)[o+]c(C)c1,T/C,[4],101 % of control
same,T/C,[1],113 % of control and 92 % of control
same,T/C,[2],106 % of control and 107 % of control
same,T/C,[3],122 % of control
[Cl][Pt+2][Cl].[NH-]C1CCCCCCC1.[NH-]C1CCCCCCC1,T/C,"dose: 12.5 mg/kg/injection, schedule: Q01DX009 (ip), vehicle: other",106 % of control
same,T/C,"dose: 25.0 mg/kg/injection, schedule: Q01DX009 (ip), vehicle: other",97 % of control
same,T/C,"dose: 50.0 mg/kg/injection, schedule: Q01DX009 (ip), vehicle: other",101 % of control
same,T/C,"dose: 100.0 mg/kg/injection, schedule: Q01DX009 (ip), vehicle: other",117 % of control
same,T/C,"dose: 200.0 mg/kg/injection, schedule: Q01DX009 (ip), vehicle: other",108 % of control
Cc1cc2c(cc1C)NC1=C(N2)OC(c2cccc(O)c2)C1=O (stereo not given),T/C,"dose: 7.5 mg/kg/injection, schedule: Q01DX005 (ip), vehicle: Klucel (hydroxypropylcellulose) (HPC)",104 % of control
same,T/C,[5],101 % of control
same,T/C,[6],110 % of control
CC(C)(C)c1ccc(S(=O)(=O)O)cc1,T/C,[7],103 % of control
same,T/C,[8],100 % of control
same,T/C,[9],86 % of control
CC[C@H]1C[C@H](Cc2ccccc2)CC[C@H]1N1CCCC1,T/C,"dose: 50.0 mg/kg/injection, schedule: Q01DX005 (ip), vehicle: saline with Tween-80",101 % of control
same,T/C,"dose: 100.0 mg/kg/injection, schedule: Q01DX005 (ip), vehicle: saline with Tween-80",104 % of control
Clc1ccc(C[Se][Se]Cc2ccc(Cl)cc2)cc1,T/C,"dose: 6.25 mg/kg/injection, schedule: Q01DX009 (ip), vehicle: Klucel (hydroxypropylcellulose) (HPC)",109 % of control
same,T/C,"dose: 12.5 mg/kg/injection, schedule: Q01DX009 (ip), vehicle: Klucel (hydroxypropylcellulose) (HPC)",108 % of control
same,T/C,[4],101 % of control
COc1ccc([N+](=O)[O-])cc1NC(=O)c1ccc2c(c1)C(=O)OC2=O,T/C,"dose: 7.5 mg/kg/injection, schedule: Q01DX005 (ip), vehicle: saline with Tween-80",97 % of control
same,T/C,"dose: 15.0 mg/kg/injection, schedule: Q01DX005 (ip), vehicle: saline with Tween-80",87 % of control
same,T/C,"dose: 30.0 mg/kg/injection, schedule: Q01DX005 (ip), vehicle: saline with Tween-80",90 % of control and 94 % of control
same,T/C,[10],89 % of control
same,T/C,[11],93 % of control
CC(=O)NCc1cc(C)c(CCl)cc1CCl,T/C,"dose: 3.13 mg/kg/injection, schedule: Q01DX009 (ip), vehicle: distilled water + Tween-80",103 % of control
same,T/C,"dose: 6.25 mg/kg/injection, schedule: Q01DX009 (ip), vehicle: distilled water + Tween-80",114 % of control and 117 % of control
same,T/C,"dose: 12.5 mg/kg/injection, schedule: Q01DX009 (ip), vehicle: distilled water + Tween-80",122 % of control and 123 % of control
same,T/C,"dose: 25.0 mg/kg/injection, schedule: Q01DX009 (ip), vehicle: distilled water + Tween-80",116 % of control
CC(=C\C1=CC(C)(C)CCC1(C)C)/C=C(C)/C=C/C=[N+](\[O-])C1C(C2COC(C)(C)O2)OC2OC(C)(C)OC21 (stereo not given),T/C,"dose: 12.5 mg/kg/injection, schedule: Q01DX005 (ip), vehicle: DMSO",103 % of control
same,T/C,"dose: 25.0 mg/kg/injection, schedule: Q01DX005 (ip), vehicle: DMSO",119 % of control
same,T/C,"dose: 50.0 mg/kg/injection, schedule: Q01DX005 (ip), vehicle: DMSO",100 % of control and 113 % of control
same,T/C,"dose: 100.0 mg/kg/injection, schedule: Q01DX005 (ip), vehicle: DMSO",106 % of control
same,T/C,"dose: 200.0 mg/kg/injection, schedule: Q01DX005 (ip), vehicle: DMSO",103 % of control
c1ccc(N=C2c3ccccc3NC2(c2ccccc2)c2ccccc2)cc1,T/C,[12],101 % of control
same,T/C,[13],93 % of control
CCc1cccc(NC(=O)NNC(=O)c2ccncc2)c1,T/C,[1],96 % of control
same,T/C,[2],100 % of control
CC(=O)Nc1ccc(/C=C\c2ccnc3ccccc23)cc1,T/C,"dose: 25.0 mg/kg/injection, schedule: Q04DX002 (ip), vehicle: saline with Tween-80",109 % of control
OCc1ccn2c1C(O)CC2 (stereo not given),T/C,"dose: 12.5 mg/kg/injection, schedule: Q01DX009 (ip), vehicle: saline",124 % of control
same,T/C,[7],113 % of control
same,T/C,[8],201 % of control
same,T/C,[9],157 % of control
CCCCOC(=O)N(CCF)N=O,T/C,"dose: 3.12 mg/kg/injection, schedule: Q01DX001 (ip), vehicle: saline with Tween-80",109 % of control
same,T/C,"dose: 6.25 mg/kg/injection, schedule: Q01DX001 (ip), vehicle: saline with Tween-80",118 % of control and 119 % of control
same,T/C,"dose: 12.5 mg/kg/injection, schedule: Q01DX001 (ip), vehicle: saline with Tween-80",118 % of control and 119 % of control
Nc1nc(=O)cnn1C1OC(CO)C(O)C1O (stereo not given),T/C,[14],98 % of control
same,T/C,[15],97 % of control
same,T/C,[16],103 % of control
c1ccc(-c2cc3nccnc3[nH]2)cc1,T/C,[5],100 % of control
same,T/C,[6],92 % of control
same,T/C,[17],87 % of control and 89 % of control
same,T/C,[18],97 % of control
CN(C)c1ccc(/C=C/c2ccnnc2)cc1,T/C,[7],99 % of control
same,T/C,[8],104 % of control
same,T/C,[9],100 % of control
COc1cc(C(Nc2ncccn2)c2cc3c(cc2O)OCO3)cc(OC)c1O (stereo not given),T/C,[10],105 % of control
same,T/C,"dose: 120.0 mg/kg/injection, schedule: Q01DX005 (ip), vehicle: saline with Tween-80",90 % of control
same,T/C,[11],90 % of control
CN(c1ccccc1)C1C=C(c2ccccc2)OC(=O)C1(Cl)Cl (stereo not given),T/C,[12],92 % of control
same,T/C,[13],95 % of control
same,T/C,"dose: 200.0 mg/kg/injection, schedule: Q01DX009 (ip), vehicle: saline with Tween-80",98 % of control
O=c1nc(Oc2ccc([N+](=O)[O-])cc2)nc2ccccn12,T/C,[1],99 % of control
same,T/C,[2],87 % of control
same,T/C,[3],87 % of control
O=c1c2cc(Cl)cc(Cl)c2nc2n1S(=O)(=O)c1ccccc1N2c1ccccc1,T/C,[14],94 % of control
same,T/C,[15],91 % of control
same,T/C,[16],95 % of control
NC(CC1=CS(=O)(=O)c2ccc(Cl)cc21)C(=O)O (stereo not given),T/C,"dose: 25.0 mg/kg/injection, schedule: Q01DX001 (ip), vehicle: Klucel (hydroxypropylcellulose) (HPC)",99 % of control
same,T/C,"dose: 50.0 mg/kg/injection, schedule: Q01DX001 (ip), vehicle: Klucel (hydroxypropylcellulose) (HPC)",96 % of control
same,T/C,"dose: 100.0 mg/kg/injection, schedule: Q01DX001 (ip), vehicle: Klucel (hydroxypropylcellulose) (HPC)",101 % of control
COCC(=O)[C@]1(O)Cc2c(O)c3c(c(O)c2[C@@H](OC2CC(N)C(O)C(C)O2)C1)C(=O)c1c(OC)cccc1C3=O (stereo not given in full),T/C,"dose: 6.25 mg/kg/injection, schedule: Q04DX003 (ip), vehicle: water",100 % of control
same,T/C,"dose: 12.5 mg/kg/injection, schedule: Q04DX003 (ip), vehicle: water",100 % of control
same,T/C,"dose: 25.0 mg/kg/injection, schedule: Q04DX003 (ip), vehicle: water",109 % of control
same,T/C,"dose: 100.0 mg/kg/injection, schedule: Q04DX003 (ip), vehicle: water",118 % of control
same,T/C,"dose: 200.0 mg/kg/injection, schedule: Q04DX003 (ip), vehicle: water",87 % of control
COc1ccc(N2C(=O)C(=O)C(C(C)=O)C2=O)cc1 (stereo not given),T/C,[19],100 % of control
same,T/C,[20],94 % of control
COc1ccc(/C=N/SC(c2ccccc2)(c2ccccc2)c2ccccc2)cc1,T/C,[19],111 % of control
same,T/C,[20],99 % of control
same,T/C,"dose: 400.0 mg/kg/injection, schedule: Q04DX002 (ip), vehicle: saline with Tween-80",92 % of control
CCOC(=O)c1cc(=O)[nH]c2cc(N)ccc12,T/C,[17],97 % of control
same,T/C,[18],93 % of control
same,T/C,"dose: 240.0 mg/kg/injection, schedule: Q01DX005 (ip), vehicle: Klucel (hydroxypropylcellulose) (HPC)",91 % of control
